# Measurements: PubChem BioAssay AID1963962 (Molecular Pharmacology Branch, DTP, NCI, 2024)
# “And” between values parts separate entries of the source, which are not always exact repeats. Identical values can stand only once.
# Tested on: 967376-340-R-J2-PDC multicell spheroid viability
# Assay: Anticancer human tumor 967376-340-R-J2-PDC patient-derived colon adenocarcinoma cell line growth inhibition [PI3K]
# Details: for viability, T/C: stronger effect = lower value
# From the text: Combinatorial screen of targeted agents with the PI3K inhibitors inavolisib, alpelisib, duvelisib, and copanlisib in multi-cell type tumor spheroids
# A high-throughput screen of multi-cell type tumor spheroids was designed to identify active combinations of targeted small molecules and PI3K pathway inhibitors. Complex spheroids include a stromal component modeled by human endothelial cells (HUVEC) and fibroblasts modeled by human mesenchymal stem cells (MSCs). The concentration ranges selected for each drug and investigational agent were based upon clinically achievable concentrations if the clinical Cmax of the agent was known.
# Compounds. The drugs and investigational agents: inavolisib (NSC800729), alpelisib (NSC765974), duvelisib (NSC772469), copanlisib (NSC816437), ipatasertib (NSC767898), afuresertib (NSC778305), talazoparib (NSC767125), sapanisertib (NSC764658), selumetinib (NSC741078), tovorafenib (DAY101, NSC766906), vemurafenib (NSC761431), ravoxertinib (NSC781343), sotorasib (NSC818433), MRTX1133 (NSC 836407), abemaciclib (NSC 768073), palbociclib (NSC758247), venetoclax (NSC 766270), SY5609 (NSC837396), enzalutamide (NSC755605), and darolutamide (NSC825331), were obtained from the National Cancer Institute (NCI) Developmental Therapeutics Program Chemical Repository. The FDA-approved anticancer drug set is available from the NCI Developmental Therapeutics Program. […] The stock solutions were prepared in dimethyl sulfoxide (DMSO, Sigma-Aldrich, St. Louis, MO, cat. D2650) at 800-fold the tested concentration and stored at -70 degrees C prior to their use. All drugs and investigational agents were tested over a range starting from a high concentration at or near the clinical Cmax and decreasing in half-log increments. If the clinical Cmax for an agent had not been determined, the highest concentration tested was 10 microM.
# Cell Culture. All cells were maintained in an incubator at 37 degrees C and 5% CO2 with 95% humidity. The PDC lines were cultured according to standard operating procedures established by the NCI PDMR (https://pdmr.cancer.gov/sops/default.htm). All PDCs were thawed and cultured in Matrigel-coated flasks prepared with a working solution of 1X Ham's F-12 nutrient mix, without supplementation (Invitrogen, Waltham, MA, cat. 11765054), 100 U/mL penicillin-streptomycin (Invitrogen, cat. 15140122), and 2.5% Matrigel (Corning Inc., Corning, NY, cat. 354248) for the first three passages. The 354836-022-R-J1-PDC, 475296-252-R-J1-PDC, and 997726-040-R-J2-PDC lines were cultured in 6A media, which includes advanced DMEM/F-12 (Thermo Fisher Scientific, cat. 12634028), 10 mM HEPES (Thermo Fisher Scientific, cat. 15630080), 1X GlutaMAX supplement (Thermo Fisher Scientific, cat. 35050061), 0.1 mg/mL primocin (InvivoGen, San Diego, CA, cat. ant-pm-2), 10% defined fetal bovine serum, heat inactivated (HyClone Laboratories Inc., Logan, UT, cat. SH30070.03HI), 50% L-WRN conditioned media (ATCC, cat. CRL-3276), 1.25 mM N-Acetyl-L-cysteine (Sigma-Aldrich, cat. A9165), 10 mM nicotinamide (Sigma-Aldrich, cat. N0636), 1X B-27 supplement (Thermo Fisher Scientific, cat. 17504044), 1X N-2 supplement (Thermo Fisher Scientific, cat. 17502048), and 10 microM Y-27632 dihydrochloride (Tocris Bioscience, Bristol, United Kingdom, cat. 1254). The 624824-186-R-J2-PDC line was cultured in 6C/Colon 1B media, which includes all 6A media components plus 50 ng/mL human EGF recombinant protein (Thermo Fisher Scientific, cat. PHG0311). […]
# [1] = curve of first compound, second compound 0.0316 µM
# [2] = curve of first compound, second compound 0.1 µM
# [3] = curve of first compound, second compound 0.316 µM
# [4] = curve of first compound, second compound 1 µM
# [5] = second compound 0.0316 µM, first compound 0.0316 µM
# [6] = second compound 0.0316 µM, first compound 0.1 µM
# [7] = second compound 0.0316 µM, first compound 0.316 µM
# [8] = second compound 0.0316 µM, first compound 1 µM
# [9] = second compound 0.0316 µM, first compound 3.16 µM
# [10] = second compound 0.0316 µM, first compound 10 µM
# [11] = second compound 0.1 µM, first compound 0.0316 µM
# [12] = second compound 0.1 µM, first compound 0.1 µM
# [13] = second compound 0.1 µM, first compound 0.316 µM
# [14] = second compound 0.1 µM, first compound 1 µM
# [15] = second compound 0.1 µM, first compound 3.16 µM
# [16] = second compound 0.1 µM, first compound 10 µM
# [17] = second compound 0.316 µM, first compound 0.0316 µM
# [18] = second compound 0.316 µM, first compound 0.1 µM
# [19] = second compound 0.316 µM, first compound 0.316 µM
# [20] = second compound 0.316 µM, first compound 1 µM
# [21] = second compound 0.316 µM, first compound 3.16 µM
# [22] = second compound 0.316 µM, first compound 10 µM
# [23] = second compound 1 µM, first compound 0.0316 µM
# [24] = second compound 1 µM, first compound 0.1 µM
# [25] = second compound 1 µM, first compound 0.316 µM
# [26] = second compound 1 µM, first compound 1 µM
# [27] = second compound 1 µM, first compound 3.16 µM
# [28] = second compound 1 µM, first compound 10 µM
# 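Further: spheroids exposed to agents for 7 days before read-out.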
# 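Wherever viability, T/C is given: luminescence used as surrogate of cell viability.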
compound,measurement,setting,value
CC(Cn1ccc(-c2ccc(C#N)c(Cl)c2)n1)NC(=O)c1cc(C(C)O)[nH]n1 (configuration not stated) + Cc1nc(NC(=O)N2CCCC2C(N)=O)sc1-c1ccnc(C(C)(C)C(F)(F)F)c1,IC50,[1],> 10 µM
same,IC50,[2],> 10 µM
same,IC50,[3],> 10 µM
same,IC50,[4],> 10 µM
same,IC50,"curve of first compound, second compound 3.16 µM",> 10 µM
same,IC50,"curve of first compound, second compound 10 µM",> 10 µM
same,"viability, T/C",[5],90.6%
same,"viability, T/C",[6],118%
same,"viability, T/C",[7],104%
same,"viability, T/C",[8],93.9%
same,"viability, T/C",[9],109%
same,"viability, T/C",[10],102%
same,"viability, T/C",[11],95.1%
same,"viability, T/C",[12],103%
same,"viability, T/C",[13],91.6%
same,"viability, T/C",[14],100%
same,"viability, T/C",[15],92.9%
same,"viability, T/C",[16],119%
same,"viability, T/C",[17],69.3%
same,"viability, T/C",[18],94.3%
same,"viability, T/C",[19],95%
same,"viability, T/C",[20],92.7%
same,"viability, T/C",[21],102%
same,"viability, T/C",[22],73.8%
same,"viability, T/C",[23],58%
same,"viability, T/C",[24],66.8%
same,"viability, T/C",[25],75.2%
same,"viability, T/C",[26],72.5%
same,"viability, T/C",[27],83.5%
same,"viability, T/C",[28],65.7%
same,"viability, T/C","second compound 3.16 µM, first compound 0.0316 µM",54.4%
same,"viability, T/C","second compound 3.16 µM, first compound 0.1 µM",62.3%
same,"viability, T/C","second compound 3.16 µM, first compound 0.316 µM",61.5%
same,"viability, T/C","second compound 3.16 µM, first compound 1 µM",52.5%
same,"viability, T/C","second compound 3.16 µM, first compound 3.16 µM",62.9%
same,"viability, T/C","second compound 3.16 µM, first compound 10 µM",73.7%
same,"viability, T/C","second compound 10 µM, first compound 0.0316 µM",57.3%
same,"viability, T/C","second compound 10 µM, first compound 0.1 µM",58.4%
same,"viability, T/C","second compound 10 µM, first compound 0.316 µM",43.3%
same,"viability, T/C","second compound 10 µM, first compound 1 µM",60.9%
same,"viability, T/C","second compound 10 µM, first compound 3.16 µM",72.1%
same,"viability, T/C","second compound 10 µM, first compound 10 µM",48.2%
C[C@@H](NC(=O)c1ncnc(N)c1Cl)c1ncc(C(=O)Nc2cc(C(F)(F)F)c(Cl)cn2)s1 + COc1c(OCCCN2CCOCC2)ccc2c3n(c(=NC(=O)c4cnc(N)nc4)nc12)CCN3,IC50,"curve of first compound, second compound 0.00316 µM",> 10 µM
same,IC50,"curve of first compound, second compound 0.01 µM",> 10 µM
same,IC50,[1],> 10 µM
same,IC50,[2],> 10 µM
same,IC50,[3],< 0.0316 µM
same,IC50,[4],< 0.0316 µM
same,"viability, T/C","second compound 0.00316 µM, first compound 0.0316 µM",94.3%
same,"viability, T/C","second compound 0.00316 µM, first compound 0.1 µM",86.9%
same,"viability, T/C","second compound 0.00316 µM, first compound 0.316 µM",80.6%
same,"viability, T/C","second compound 0.00316 µM, first compound 1 µM",89.7%
same,"viability, T/C","second compound 0.00316 µM, first compound 3.16 µM",120%
same,"viability, T/C","second compound 0.00316 µM, first compound 10 µM",123%
same,"viability, T/C","second compound 0.01 µM, first compound 0.0316 µM",93.2%
same,"viability, T/C","second compound 0.01 µM, first compound 0.1 µM",84.5%
same,"viability, T/C","second compound 0.01 µM, first compound 0.316 µM",91.9%
same,"viability, T/C","second compound 0.01 µM, first compound 1 µM",100%
same,"viability, T/C","second compound 0.01 µM, first compound 3.16 µM",112%
same,"viability, T/C","second compound 0.01 µM, first compound 10 µM",91.3%
same,"viability, T/C",[5],67.7%
same,"viability, T/C",[6],77.1%
same,"viability, T/C",[7],71.9%
same,"viability, T/C",[8],63%
same,"viability, T/C",[9],93.3%
same,"viability, T/C",[10],107%
same,"viability, T/C",[11],66.6%
same,"viability, T/C",[12],51.5%
same,"viability, T/C",[13],70.1%
same,"viability, T/C",[14],62.7%
same,"viability, T/C",[15],62.8%
same,"viability, T/C",[16],70.2%
same,"viability, T/C",[17],49%
same,"viability, T/C",[18],49.6%
same,"viability, T/C",[19],49.2%
same,"viability, T/C",[20],43.2%
same,"viability, T/C",[21],56.6%
same,"viability, T/C",[22],62.6%
same,"viability, T/C",[23],43%
same,"viability, T/C",[24],33%
same,"viability, T/C",[25],38.5%
same,"viability, T/C",[26],38.1%
same,"viability, T/C",[27],45.7%
same,"viability, T/C",[28],45%
Cn1nccc1Nc1nccc(-c2ccn(C(CO)c3ccc(Cl)c(F)c3)c(=O)c2)n1 (configuration not stated),"viability, T/C",compound 0.0316 µM,100% [middle of 4 runs]
same,"viability, T/C",compound 0.1 µM,94.5% [middle of 4 runs]
same,"viability, T/C",compound 0.316 µM,101% (2×) and 95.3% and 76.4%
same,"viability, T/C",compound 10 µM,99.5% [middle of 4 runs]
same,IC50,curve of compound,> 10 µM
CC1(C)CCC(Nc2ncc(C(F)(F)F)c(-c3c[nH]c4c(P(C)(C)=O)c(C#N)ccc34)n2)CN1 (configuration not stated),"viability, T/C",compound 0.0316 µM,88.9% [middle of 4 runs]
same,"viability, T/C",compound 0.316 µM,73.3% [middle of 4 runs]
same,"viability, T/C",compound 1 µM,71.2% [middle of 4 runs]
same,"viability, T/C",compound 3.16 µM,69.4% [middle of 4 runs]
same,"viability, T/C",compound 10 µM,48.1% [middle of 4 runs]
same,IC50,curve of compound,9.93 µM and > 10 µM and 2.51 µM
CC(C)NCC(C(=O)N1CCN(c2ncnc3c2C(C)CC3O)CC1)c1ccc(Cl)cc1 (configuration not stated),"viability, T/C",compound 0.0316 µM,107% [middle of 4 runs]
same,"viability, T/C",compound 0.1 µM,91.1% [middle of 4 runs]
same,"viability, T/C",compound 0.316 µM,90.2% [middle of 4 runs]
same,"viability, T/C",compound 1 µM,88% [middle of 4 runs]
same,"viability, T/C",compound 3.16 µM,103% [middle of 4 runs]
same,"viability, T/C",compound 10 µM,83.2% [middle of 4 runs]
same,IC50,curve of compound,> 10 µM
